Inconclusive results and toxic doses are left out. Cut-off read from the data, not from the text of the source: active = T/C of 150% or more; inactive = T/C below 125%.
System: L1210 leukemia ip in BDF1 mice, survival T/C
Test: NCI In Vivo Anticancer Drug Screen. Data for tumor model L1210 Leukemia (intraperitoneal) in B6D2F1 (BDF1) mice
Details: endpoint: mean survival time, higher = longer survival
In short: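 Read-out is survival time, reported as the treated-group measurement over the vehicle-control measurement.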

[1] = dose: 25.0 mg/kg/injection, schedule: Q01DX009 (ip), vehicle: Klucel (hydroxypropylcellulose) (HPC)
[2] = dose: 100.0 mg/kg/injection, schedule: Q04DX003 (ip), vehicle: Klucel (hydroxypropylcellulose) (HPC)
[3] = dose: 200.0 mg/kg/injection, schedule: Q04DX003 (ip), vehicle: Klucel (hydroxypropylcellulose) (HPC)
[4] = dose: 100.0 mg/kg/injection, schedule: Q01DX009 (ip), vehicle: Klucel (hydroxypropylcellulose) (HPC)
[5] = dose: 100.0 mg/kg/injection, schedule: Q04DX002 (ip), vehicle: Klucel (hydroxypropylcellulose) (HPC)
[6] = dose: 200.0 mg/kg/injection, schedule: Q04DX002 (ip), vehicle: Klucel (hydroxypropylcellulose) (HPC)
[7] = dose: 400.0 mg/kg/injection, schedule: Q04DX002 (ip), vehicle: Klucel (hydroxypropylcellulose) (HPC)
[8] = dose: 200.0 mg/kg/injection, schedule: Q01DX009 (ip), vehicle: Klucel (hydroxypropylcellulose) (HPC)
[9] = dose: 400.0 mg/kg/injection, schedule: Q01DX009 (ip), vehicle: Klucel (hydroxypropylcellulose) (HPC)
[10] = dose: 400.0 mg/kg/injection, schedule: Q04DX003 (ip), vehicle: Klucel (hydroxypropylcellulose) (HPC)

Measured: T/C

N#Cc1sc2ccccc2c1CBr
inactive: dose: 6.25 mg/kg/injection, schedule: Q01DX009 (ip), vehicle: Klucel (hydroxypropylcellulose) (HPC) 93 % of control | dose: 12.5 mg/kg/injection, schedule: Q01DX009 (ip), vehicle: Klucel (hydroxypropylcellulose) (HPC) 94 % of control | [1] 100 % of control | [2] 100 % of control | [3] 94 % of control

CN1CCN(c2ccc(Cl)cc2)CC1
inactive: [1] 97 % of control | dose: 25.0 mg/kg/injection, schedule: Q04DX003 (ip), vehicle: Klucel (hydroxypropylcellulose) (HPC) 97 % of control | dose: 50.0 mg/kg/injection, schedule: Q01DX009 (ip), vehicle: Klucel (hydroxypropylcellulose) (HPC) 106 % of control | dose: 50.0 mg/kg/injection, schedule: Q04DX003 (ip), vehicle: Klucel (hydroxypropylcellulose) (HPC) 105 % of control | [4] 100 % of control | [2] 106 % of control

NC(=S)Nc1ccncc1
inactive: [5] 92 % of control | [6] 106 % of control | [7] 95 % of control

O=C(OCC(COC(=O)c1ccccc1)(COC(=O)c1ccccc1)COC(=O)c1ccccc1)c1ccccc1
inactive: [4] 91 % of control | [2] 91 % of control | [8] 105 % of control | [3] 99 % of control | [9] 96 % of control | [10] 98 % of control

CCC(=O)Nc1ccccc1C
inactive: [5] 92 % of control | [6] 103 % of control | [7] 110 % of control

CC1(C)NC(=O)N(CCO)C1=O
inactive: dose: 50.0 mg/kg/injection, schedule: Q04DX003 (ip), vehicle: saline 111 % of control | dose: 100.0 mg/kg/injection, schedule: Q04DX003 (ip), vehicle: saline 111 % of control | dose: 200.0 mg/kg/injection, schedule: Q04DX003 (ip), vehicle: saline 100 % of control | dose: 400.0 mg/kg/injection, schedule: Q04DX003 (ip), vehicle: saline 101 % of control

C=C=C[P+](c1ccccc1)(c1ccccc1)c1ccccc1
inactive: dose: 5.0 mg/kg/injection, schedule: Q01DX001 (ip), vehicle: saline 104 % of control | dose: 10.0 mg/kg/injection, schedule: Q01DX001 (ip), vehicle: saline 98 % of control | dose: 20.0 mg/kg/injection, schedule: Q01DX001 (ip), vehicle: saline 101 % of control | dose: 40.0 mg/kg/injection, schedule: Q01DX001 (ip), vehicle: saline 124 % of control

CCOC(=O)C[n+]1ccccc1/C=C/c1ccc(O)cc1
inactive: dose: 9.38 mg/kg/injection, schedule: Q01DX001 (ip), vehicle: other 101 % of control

N=C(N)c1ccc(NC(=O)c2ccc(C(=O)Nc3ccc(C(=N)N)cc3)c(N)c2)cc1
inactive: dose: 62.0 mg/kg/injection, schedule: Q01DX Z (ip), vehicle: carboxymethylcellulose (CMC) 106 % of control | dose: 125.0 mg/kg/injection, schedule: Q01DX Z (ip), vehicle: carboxymethylcellulose (CMC) 118 % of control | dose: 500.0 mg/kg/injection, schedule: Q01DX Z (ip), vehicle: carboxymethylcellulose (CMC) 113 % of control

CN(CCOc1ccccc1O)CCOc1ccccc1O
inactive: [2] 105 % of control | [8] 101 % of control | [3] 106 % of control | [9] 86 % of control | [10] 101 % of control

CC(C)CC(NC(=O)c1ccccc1)C(N)=O (stereo not drawn)
inactive: dose: 100.0 mg/kg/injection, schedule: Q01DX009 (ip), vehicle: saline with Tween-80 90 % of control | dose: 200.0 mg/kg/injection, schedule: Q01DX009 (ip), vehicle: saline with Tween-80 90 % of control

CCN(CC)CCNC(Cc1ccccc1)c1cccc(OC)c1 (stereo not drawn)
inactive: dose: 100.0 mg/kg/injection, schedule: Q01DX001 (ip), vehicle: carboxymethylcellulose (CMC) 96 % of control

Nc1ccc(CCc2ccccc2)cc1
inactive: dose: 50.0 mg/kg/injection, schedule: Q01DX009 (ip), vehicle: saline with Tween-80 97 % of control

O=c1[nH]c(Nc2ccccc2)c([N+](=O)[O-])c(=O)[nH]1
inactive: dose: 9.0 mg/kg/injection, schedule: Q01DX001 (ip), vehicle: Klucel (hydroxypropylcellulose) (HPC) 98 % of control | dose: 18.0 mg/kg/injection, schedule: Q01DX001 (ip), vehicle: Klucel (hydroxypropylcellulose) (HPC) 110 % of control | dose: 37.0 mg/kg/injection, schedule: Q01DX001 (ip), vehicle: Klucel (hydroxypropylcellulose) (HPC) 101 % of control | dose: 75.0 mg/kg/injection, schedule: Q01DX001 (ip), vehicle: Klucel (hydroxypropylcellulose) (HPC) 104 % of control

Reference: PubChem BioAssay AID248 (DTP/NCI, 2004)
